From paper PMC8262977, “A Dual-Specificity Inhibitor Targets Polyphosphate Kinase 1 and 2 Enzymes To Attenuate Virulence of Pseudomonas aeruginosa” (mBio, 2021)

Key:
[1] = mice, 5 to 10 mg/kg of body weight daily for up to 8 weeks; cited from earlier work
[2] = target: T1, P. aeruginosa PPK1 (Pseudomonas aeruginosa, UniProt P0DP44); test: PPK1 polyP synthesis from ATP, toluidine blue detection; format: biochemical
T1 construct: His tag (cleaved yes); made in house
Protocol: Compounds were synthesized as outlined in Text S1. Compounds were dissolved in DMSO to make 10 mM stocks and added to a 200 μM final concentration for initial screening. The screen for PPK1 inhibitors was conducted by measuring polyP synthesis activity as described previously ([12]), with the exception of the polyP detection method (see Text S1). […] One-hundred-microliter reaction mixtures were incubated at 37°C for 30 min, after which time 50-μl aliquots were withdrawn and added to 1,000 μl of 6-mg/liter toluidine blue dissolved in 40 mM acetic acid to quench the reaction and quantify polyP ([27]). The A630/530 nm ratio was then recorded, and the values obtained were corrected by subtracting the corresponding blanks (all ingredients except enzyme). The amount of polyP synthesized was calculated using a standard curve (Fig. S1A). Any compounds showing 50% or greater reduction in activity relative to the DMSO control were subjected to further IC50 analysis.
(§1) All IC50 and kinetic assay mixtures contained equimolar amounts (275 nM) of PPK to ensure valid comparison between different enzymes. PolyP synthesis activity (for PPK1 and PPK2B) was assayed using the reaction buffer and conditions described above. ATP concentration was varied as indicated for kinetic experiments. Curves were fit using GraphPad Prism V9.

[3] = tested on: C. elegans; test: Toxicity toward C. elegans (OP50 + gallein curves); format: in vivo, Caenorhabditis elegans; conditions: 100 μM
Protocol: We tested both liquid killing (LK) and solid-phase slow killing (SK) models of infection, as these two assays are reliant upon distinct mechanisms of P. aeruginosa pathogenesis ([34], [35]). […]. Wild-type N2 C. elegans and the glp-4 conditionally sterile mutant strain were obtained from the Caenorhabditis Genetics Center. Liquid killing assays were conducted using glp-4 mutant worms as described previously ([35]), with the exception of survival being scored manually under a Zeiss light microscope instead of via Sytox Orange staining. Nematodes were scored as dead when they no longer moved when tapped. Solid killing was conducted using glp-4 as described previously ([34]), with the indicated concentration of inhibitor impregnated into the SK agar. Bacterial CFU accumulation in WT N2 worms was quantified as described previously ([56]). Briefly, age-synchronized embryos were spotted onto bacterium-seeded nematode growth medium (NGM) agar plates impregnated with inhibitor or DMSO. Embryos were incubated at 25°C for 3 days, after which point adult worms were harvested, washed, lysed, and enumerated for CFU.

[4] = tested on: P. aeruginosa PA14; test: Pyoverdine quantification (absorbance at 403 nm); format: cell-based, Pseudomonas aeruginosa
Protocol: Fifty-milliliter P. aeruginosa cultures in 2.5% (wt/vol) LB (Miller; Bioshop) were grown to stationary phase in 125-ml Erlenmeyer flasks with 180-rpm shaking at 37°C for 18 h. Cultures were centrifuged at 18,000 rpm for 30 min to clarify the supernatant, which was then filter sterilized. Pyoverdine was quantified spectrophotometrically at 403 nm as described previously ([55]). Pyocyanin was extracted via chloroform and treated with HCl to yield a red product that was quantified at 520 nm ([55]). To account for any colorimetric interference by inhibitors, cell-free blank readings were subtracted from each sample.

[5] = tested on: human protein kinases; test: Counterscreen against human protein kinases, [33P]ATP filter-binding assay; format: biochemical; conditions: 10 μM gallein, array of divergent human kinases
Protocol: Toxicity is always a major concern with kinase inhibitors, even though the absence of PPK homologues in mammals makes these enzymes particularly attractive therapeutic targets ([1], [11]). Cytotoxicity of the inhibitors was therefore assessed in cultured human embryonic kidney (HEK) […] cells via standard trypan blue viability assays ([36]). While the initial hit RT1 reduced cell viability by ∼60%, gallein was noncytotoxic at concentrations up to 100 μM (Fig. 6A). Gallein was also counterscreened against an array of divergent human kinases available at the International Centre for Kinase Profiling (University of Dundee), as described previously ([37]).
FIG 6 Gallein avoids off-target toxicity. (A) HEK cell cytotoxicity assay. Viability determined via trypan blue staining following 48 h of incubation with compounds. (B) Counterscreen for inhibition of human protein kinases by 10 μM gallein via radioactive ([^33P]ATP) filter-binding assay performed by the University of Dundee MRC PPU ([26]). (A) ns, P > 0.05; *, P < 0.05 (one-way ANOVA, Tukey’s multiple-comparison test, n = 3).

[6] = target: T2, P. aeruginosa PPK2B (Pseudomonas aeruginosa, UniProt Q9I154); test: PPK2B polyP synthesis from ATP, toluidine blue detection; format: biochemical; conditions: polyP synthesis from ATP; 275 nM enzyme; read-out: IC50 PPK2B
T2 construct: MBP (N, cleaved yes); His tag (N, cleaved yes); made in house; host or cells: E. coli BL21(DE3)
T2 sequence (Q9I154 whole entry): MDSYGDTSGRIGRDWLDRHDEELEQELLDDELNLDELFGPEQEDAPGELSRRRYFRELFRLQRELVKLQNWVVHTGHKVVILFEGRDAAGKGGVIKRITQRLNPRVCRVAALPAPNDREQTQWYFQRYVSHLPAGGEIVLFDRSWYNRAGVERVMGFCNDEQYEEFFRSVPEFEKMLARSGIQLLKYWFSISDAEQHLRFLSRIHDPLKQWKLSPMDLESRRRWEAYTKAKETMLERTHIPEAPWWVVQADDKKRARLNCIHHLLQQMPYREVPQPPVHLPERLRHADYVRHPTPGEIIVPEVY
Protocol: Compounds were synthesized as outlined in Text S1. Compounds were dissolved in DMSO to make 10 mM stocks and added to a 200 μM final concentration for initial screening. The screen for PPK1 inhibitors was conducted by measuring polyP synthesis activity as described previously ([12]), with the exception of the polyP detection method (see Text S1). The reaction mix contained 50 mM HEPES-KOH, pH 7.5, 40 mM (NH4)2SO4, 4 mM MgSO4, 60 mM creatine phosphate, 0.0625 mg/ml creatine kinase (Sigma; from rabbit muscle), 5 mM ATP, and 275 nM PPK1 (added last). One-hundred-microliter reaction mixtures were incubated at 37°C for 30 min, after which time 50-μl aliquots were withdrawn and added to 1,000 μl of 6-mg/liter toluidine blue dissolved in 40 mM acetic acid to quench the reaction and quantify polyP ([27]). The A630/530 nm ratio was then recorded, and the values obtained were corrected by subtracting the corresponding blanks (all ingredients except enzyme). The amount of polyP synthesized was calculated using a standard curve (Fig. S1A). Any compounds showing 50% or greater reduction in activity relative to the DMSO control were subjected to further IC50 analysis.
as §1

[7] = tested on: P. aeruginosa; test: Antibiotic synergy in the C. elegans LK model; format: in vivo, Caenorhabditis elegans; conditions: for protection of C. elegans in combination with antibiotic: LK assay
Protocol: Assessment of antibiotic synergy in the C. elegans model was adapted from previously described protocols ([25]). Briefly, glp-4 C. elegans worms were incubated at 25°C with P. aeruginosa and the indicated amount of gallein or DMSO in LK medium as described above. After 24 h, antibiotics were added. After another 24 h, C. elegans survival was scored as described above.

T1 sequence (P0DP44 whole entry): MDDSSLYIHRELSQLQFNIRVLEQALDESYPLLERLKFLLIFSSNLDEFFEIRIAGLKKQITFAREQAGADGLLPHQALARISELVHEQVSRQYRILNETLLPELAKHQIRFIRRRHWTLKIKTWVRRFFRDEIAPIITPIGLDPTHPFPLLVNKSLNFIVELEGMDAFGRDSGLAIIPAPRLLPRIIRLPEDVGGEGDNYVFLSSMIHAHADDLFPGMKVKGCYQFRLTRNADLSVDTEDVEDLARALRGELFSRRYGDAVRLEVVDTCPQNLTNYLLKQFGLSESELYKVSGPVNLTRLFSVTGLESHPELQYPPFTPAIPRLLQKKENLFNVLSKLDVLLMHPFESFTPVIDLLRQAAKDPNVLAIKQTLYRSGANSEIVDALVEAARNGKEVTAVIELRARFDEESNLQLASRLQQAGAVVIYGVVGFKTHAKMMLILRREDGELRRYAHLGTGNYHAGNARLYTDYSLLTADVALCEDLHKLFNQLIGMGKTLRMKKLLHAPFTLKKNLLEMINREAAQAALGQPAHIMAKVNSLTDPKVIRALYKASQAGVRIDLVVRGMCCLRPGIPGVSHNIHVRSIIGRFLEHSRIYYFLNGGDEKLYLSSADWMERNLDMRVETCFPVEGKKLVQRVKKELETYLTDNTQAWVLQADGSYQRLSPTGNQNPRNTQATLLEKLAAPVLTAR

**Q.** What does the source list for `O=C1OC2(c3ccccc31)c1ccc(O)c(O)c1Oc1c2ccc(O)c1O` [RT4 (gallein), gallein]?
**A.** adverse effects [1]: no adverse effects; PPK1 activity in the absence of ATP regeneration ([2]; no creatine kinase/creatine phosphate, low-micromolar gallein): reduced both PPK1 activity rate and equilibrium polyP levels; IC50 ([2]; polyP synthesis from ATP, 275 nM enzyme): 17 ± 1 µM; toxicity toward C. elegans [3]: no gallein toxicity toward C. elegans was observed; pyoverdine production ([4]; WT, Δppk1 and Δppk2 strains): reproduced the marked pyoverdine and pyocyanin defects observed in the ΔpolyP strain; Pyoverdine, Mean Diff. ([4]; WT: DMSO control vs 100 µM gallein): 38.33; pyoverdine production ([4]; ΔpolyP strain): no significant decrease of either toxin; Pyoverdine, Mean Diff. ([4]; Δppk1, 2a, 2b, 2c: DMSO control vs 100 µM gallein): -3.233; Pyoverdine, Mean Diff. ([4]; Δppk1: DMSO control vs 100 µM gallein): 17.13; Pyoverdine, Mean Diff. ([4]; Δppk2a, 2b, 2c: DMSO control vs 100 µM gallein): 45.33; loss of activity of human kinases [5]: ≤ 25%; IC50 [6]: 20 ± 2 µM; C. elegans antibiotic synergy, Mean Diff. ([7]; Cipro (0.75 µg/mL) DMSO vs Cipro (0.75 µg/mL) + 100 µM gallein): -47.1; protection of C. elegans in combination with antibiotic ([7]; in combination with ciprofloxacin): achieved greater protection of C. elegans than did gallein or antibiotics alone; protection of C. elegans in combination with antibiotic ([7]; in combination with tetracycline): achieved greater protection of C. elegans than did gallein or antibiotics alone; C. elegans antibiotic synergy, Mean Diff. ([7]; No antibiotic DMSO vs Cipro (0.75 µg/mL) + 100 µM gallein): -35.08; C. elegans antibiotic synergy, Mean Diff. ([7]; No antibiotic DMSO vs No antibiotic + 100 µM gallein): -16.19; C. elegans antibiotic synergy, Mean Diff. ([7]; No antibiotic DMSO vs Tet (10 µg/mL) + 100 µM gallein): -38.97; C. elegans antibiotic synergy, Mean Diff. ([7]; Tet (10 µg/mL) DMSO vs Tet (10 µg/mL) + 100 µM gallein): -49.51
